Laboratory results from patent US20230073777A1, “CYCLIC-AMP RESPONSE ELEMENT BINDING PROTEIN (CBP) AND/OR ADENOVIRAL E1A BINDING PROTEIN OF 300 KDA (P300) DEGRADATION COMPOUNDS AND METHODS OF USE” (CULLGEN (SHANGHAI), INC., priority 2019, published 2023).
pIC50: −log10 of the molar value.

What was measured:
MV4; 11 = experiment: Cell viability assay, MV4; 11; format: cell-based; settings: Homo sapiens, 11, Acute monocytic leukemia
Protocol: (§1) Cells were seeded at a density of 5000 cells per well in 96-well assay plates and treated with test compounds following a 12-point 3-fold serial dilution. Three days later, cell viability was determined using the CellTiter-Glo assay kit according to the manufacturer's instructions. The dose-response curves were determined and IC50 values were calculated using the GraphPad Prism software following a nonlinear regression (least squares fit) method.
(§2) The IC50 value of each compound was determined as described in FIG. 4 and calculated using the GraphPad Prism 5.0 software.

LNCaP cells = experiment: LNCaP cell viability assay (CellTiter-Glo); format: cell-based; settings: Homo sapiens
In short: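 Three-day treatment of LNCaP cells (5000 per well) across a 12-point, 3-fold dilution series starting at 10 μM. ATP luminescence (CellTiter-Glo) relative to untreated controls gave dose-response curves fitted nonlinearly for IC50.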

MCF-7 = experiment: Cell viability assay, MCF-7; format: cell-based; settings: Homo sapiens, MCF7, MCF-7, breast carcinoma
Protocol: as §1, §2

LK-2 = experiment: Cell viability assay, LK-2; format: cell-based; settings: Homo sapiens, LK-2, Non-small cell lung cancer
Protocol: as §1, §2

SU-DHL-1 = experiment: Cell viability assay, SU-DHL-1; format: cell-based; settings: Homo sapiens, SU-DHL-1, Diffuse large B-cell lymphoma
Protocol: as §1, §2

Pfeiffer = experiment: Cell viability assay, Pfeiffer; format: cell-based; settings: Homo sapiens, Diffuse large B-cell lymphoma
Protocol: as §1, §2

CBP = target: T1, CBP (Homo sapiens, UniProt Q92793); experiment: Pharmacodynamic study, CBP in 22RV1 subcutaneous xenograft tumors; format: in vivo, Athymic nude mice; settings: single dose 40 mg/kg, i.p. or p.o., six hours after administration (FIG. 9)
T1 construct: from tissue; host or cells: 22RV1 subcutaneous xenograft tumours in athymic nude mice
T1 sequence (Q92793 whole entry): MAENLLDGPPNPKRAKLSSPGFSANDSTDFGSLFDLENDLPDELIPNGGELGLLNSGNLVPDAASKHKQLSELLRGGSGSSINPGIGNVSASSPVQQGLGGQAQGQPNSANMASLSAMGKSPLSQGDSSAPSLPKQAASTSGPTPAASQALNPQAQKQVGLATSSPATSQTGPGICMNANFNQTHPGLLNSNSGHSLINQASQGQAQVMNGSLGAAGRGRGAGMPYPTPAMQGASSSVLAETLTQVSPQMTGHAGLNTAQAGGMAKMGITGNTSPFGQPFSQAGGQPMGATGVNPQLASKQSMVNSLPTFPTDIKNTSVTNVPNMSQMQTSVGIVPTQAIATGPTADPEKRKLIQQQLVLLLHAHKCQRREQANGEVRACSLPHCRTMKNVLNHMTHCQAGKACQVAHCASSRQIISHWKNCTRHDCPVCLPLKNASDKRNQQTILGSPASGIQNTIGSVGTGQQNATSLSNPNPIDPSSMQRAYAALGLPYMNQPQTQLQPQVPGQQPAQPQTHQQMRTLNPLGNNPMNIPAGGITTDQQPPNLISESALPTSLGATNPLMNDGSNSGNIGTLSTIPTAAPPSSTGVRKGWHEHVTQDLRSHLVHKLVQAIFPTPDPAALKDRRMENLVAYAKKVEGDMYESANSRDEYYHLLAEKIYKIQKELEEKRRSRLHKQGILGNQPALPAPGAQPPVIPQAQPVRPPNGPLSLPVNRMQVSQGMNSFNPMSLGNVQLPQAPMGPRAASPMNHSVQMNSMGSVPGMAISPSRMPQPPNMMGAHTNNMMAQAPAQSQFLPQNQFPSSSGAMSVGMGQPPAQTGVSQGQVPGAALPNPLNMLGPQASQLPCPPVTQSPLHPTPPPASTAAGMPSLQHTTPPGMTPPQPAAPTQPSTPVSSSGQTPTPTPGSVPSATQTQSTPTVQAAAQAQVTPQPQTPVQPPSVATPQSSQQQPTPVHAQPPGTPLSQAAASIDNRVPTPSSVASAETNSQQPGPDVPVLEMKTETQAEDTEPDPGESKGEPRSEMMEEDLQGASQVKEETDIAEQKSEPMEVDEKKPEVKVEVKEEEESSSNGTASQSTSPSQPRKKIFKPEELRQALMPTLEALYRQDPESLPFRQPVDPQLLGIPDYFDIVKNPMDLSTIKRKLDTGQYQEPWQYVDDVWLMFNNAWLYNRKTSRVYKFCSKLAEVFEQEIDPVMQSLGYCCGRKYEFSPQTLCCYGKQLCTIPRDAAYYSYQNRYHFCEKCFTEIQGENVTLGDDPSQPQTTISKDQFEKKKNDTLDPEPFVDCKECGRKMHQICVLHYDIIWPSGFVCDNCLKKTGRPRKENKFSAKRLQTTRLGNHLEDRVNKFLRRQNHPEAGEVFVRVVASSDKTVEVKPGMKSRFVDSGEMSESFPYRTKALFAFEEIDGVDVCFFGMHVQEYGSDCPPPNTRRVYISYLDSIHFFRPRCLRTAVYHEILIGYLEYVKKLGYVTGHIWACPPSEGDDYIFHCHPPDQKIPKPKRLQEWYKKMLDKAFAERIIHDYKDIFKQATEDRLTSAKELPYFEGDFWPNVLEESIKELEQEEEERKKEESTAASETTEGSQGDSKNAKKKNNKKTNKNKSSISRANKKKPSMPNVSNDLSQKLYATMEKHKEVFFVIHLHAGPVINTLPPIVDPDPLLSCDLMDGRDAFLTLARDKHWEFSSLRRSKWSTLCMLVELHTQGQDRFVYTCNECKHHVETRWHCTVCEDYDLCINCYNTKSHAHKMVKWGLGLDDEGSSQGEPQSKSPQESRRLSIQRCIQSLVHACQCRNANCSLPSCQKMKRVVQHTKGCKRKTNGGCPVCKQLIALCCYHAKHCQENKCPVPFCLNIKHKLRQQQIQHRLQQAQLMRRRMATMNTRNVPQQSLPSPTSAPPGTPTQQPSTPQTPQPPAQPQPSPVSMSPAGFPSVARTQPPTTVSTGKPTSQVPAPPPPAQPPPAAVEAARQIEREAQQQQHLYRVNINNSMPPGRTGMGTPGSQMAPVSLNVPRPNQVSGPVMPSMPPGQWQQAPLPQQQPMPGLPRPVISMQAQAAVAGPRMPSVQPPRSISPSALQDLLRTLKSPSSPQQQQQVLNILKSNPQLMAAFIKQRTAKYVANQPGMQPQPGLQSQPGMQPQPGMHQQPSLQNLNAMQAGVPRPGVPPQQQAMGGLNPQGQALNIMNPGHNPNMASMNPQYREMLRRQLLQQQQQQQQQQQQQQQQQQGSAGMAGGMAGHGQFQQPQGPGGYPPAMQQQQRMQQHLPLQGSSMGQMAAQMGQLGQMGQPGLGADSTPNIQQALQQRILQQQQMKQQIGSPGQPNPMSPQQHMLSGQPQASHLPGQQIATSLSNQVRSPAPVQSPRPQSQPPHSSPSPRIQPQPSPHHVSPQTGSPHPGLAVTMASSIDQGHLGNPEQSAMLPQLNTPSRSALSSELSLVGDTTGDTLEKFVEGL
Protocol: In addition to cultured cells, athymic nude mice bearing 22RV1 subcutaneous xenograft tumors at the right flank were intraperitoneally or orally treated with 40 mg/kg bivalent compounds. Six hours after drug administration, animals were sacrificed for immunoblotting of P300 and CBP in homogenized xenograft tumor masses. […] Moreover, ICR mice were orally treated with 40 mg/kg bivalent compounds. Six hours after drug administration, animals were sacrificed for immunoblotting of CBP in homogenized lung tissues.
Athymic nude mice bearing 22RV1 subcutaneous xenograft tumors at the right flank were intraperitoneally or orally treated with selected bivalent compounds at 40 mg/kg. Six hours after drug administration, animals were sacrificed, and xenograft tumors were collected for immunoblotting of P300 and CBP.
All animal experiments were performed under protocols approved by the Institutional Animal Care and Use Committee (IACUC) of Cullgen. Athymic nude mice (male, 5-weeks old) received 5 million 22RV1 cells subcutaneously inoculated at the right flank site. Twenty days following inoculation, tumors were approximately 500 mm^3 in size. Tumor-bearing mice were treated intraperitoneally or via oral gavage with vehicle or bivalent compounds at indicated doses. 6 hours after drug administration, animals were sacrificed, tumors were resected. Small chunks of tumors were homogenized for immunoblotting of P300/CBP and other proteins as indicated. Alternatively, ICR mice (male, 5-weeks old) were treated via oral gavage with vehicle or bivalent compounds at indicated doses. 6 hours after drug administration, animals were sacrificed, lung tissues were resected. Small chunks of lung tissues were homogenized for immunoblotting of CBP and other proteins as indicated.

NCI-H1703 = experiment: Cell viability assay, NCI-H1703; format: cell-based; settings: Homo sapiens, NCI-H1703, Non-small cell lung cancer
Protocol: as §1, §2

NOMO-1 = experiment: Cell viability assay, NOMO-1; format: cell-based; settings: Homo sapiens, NOMO-1, Acute monocytic leukemia
Protocol: as §1, §2

[1] = 72 h, LNCaP prostate cancer cell viability inhibition, 3 days, CellTiter-Glo (Table 2)
[2] = cell viability, LNCaP clone FGC, Prostate carcinoma (Table 4)

pIC50 (MV4; 11) | pIC50 (LNCaP cells; [1]) | pIC50 (LNCaP cells; [2]) | pIC50 (MCF-7) | pIC50 (SU-DHL-1) | CBP protein levels in 22RV1 xenograft tumors (CBP) | pIC50 (NCI-H1703) | SMILES | pIC50 (LK-2) | pIC50 (Pfeiffer) | pIC50 (NOMO-1)
8.05 | 8.92 | 8.89 | 8.66 | 8.47 | significantly reducing | – | CNC(=O)N1CCc2c(c(N3CCCc4cc(-c5cnn(C)c5)c(C(F)F)cc43)nn2C2CCN(C(=O)CCCCCCCNc3ccc4c(c3)C(=O)N(C3CCC(=O)NC3=O)C4=O)CC2)C1 (stereo not drawn) [P-007, 3-(7-(difluoromethyl)-6-(1-methyl-1H-pyrazol-4-yl)-3,4-dihydroquinolin-1(2H)-yl)-1-(1-(8-((2-(2,6-dioxopiperidin-3-yl)-1,3-dioxoisoindolin-5-yl)amino)octanoyl)piperidin-4-yl)-N-methyl-1,4,6,7-tetrahydro-5H-pyrazolo[4,3-c]pyridine-5-carboxamide] | 8.59 | 8.68 | –
< 5.00 | 9.40 | 9.22 | 7.18 | 9.10 | significantly reducing | 8.54 | CNC(=O)N1CCc2c(c(N3CCCc4cc(-c5cnn(C)c5)c(C(F)F)cc43)nn2C2CCN(C(=O)CCCCCNc3cccc4c3C(=O)N(C3CCC(=O)NC3=O)C4=O)CC2)C1 (stereo not drawn) [P-034, 3-(7-(difluoromethyl)-6-(1-methyl-1H-pyrazol-4-yl)-3,4-dihydroquinolin-1(2H)-yl)-1-(1-(6-((2-(2,6-dioxopiperidin-3-yl)-1,3-dioxoisoindolin-4-yl)amino)hexanoyl)piperidin-4-yl)-N-methyl-1,4,6,7-tetrahydro-5H-pyrazolo[4,3-c]pyridine-5-carboxamide] | 8.15 | 9.15 | 9.10
